How the values were obtained:
Type in all cases: in vivo
[1] = test system: barnyardgrass (Ec); assay: Test Example 1: herbicidal effects by paddy field soil treatment; conditions: 100 g of the active ingredient per 10 ares, 21st day after the application, index 0-5 of Table 47;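 also: grade of growth control; 5 = at least 90%; 4 = 70 to 90%; 3 = 50 to 70%; 2 = 30 to 50%; 1 = 10 to 30%; 0 = under 10%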
Outline: (§1)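 Scoring of herbicidal effect came 21 days after application of 100 g active ingredient per 10 ares to flooded (3 cm) paddy-soil pots sown with barnyardgrass, monochoria and bulrush, kept in a greenhouse.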

[2] = test system: bulrush (Sc); assay: as above; conditions: 100 g of the active ingredient per 10 ares, 21st day after the application, index 0-5 of Table 47;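 also: grade of growth control; 5 = at least 90%; 4 = 70 to 90%; 3 = 50 to 70%; 2 = 30 to 50%; 1 = 10 to 30%; 0 = under 10%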
Outline: as §1

[3] = test system: monochoria (Mo); assay: as above; conditions: 100 g of the active ingredient per 10 ares, 21st day after the application, index 0-5 of Table 47;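 also: grade of growth control; 5 = at least 90%; 4 = 70 to 90%; 3 = 50 to 70%; 2 = 30 to 50%; 1 = 10 to 30%; 0 = under 10%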
Outline: as §1

[4] = test system: Digitaria ciliaris (Di); assay: Test Example 2: herbicidal effects by upland field soil treatment; conditions: 100 g of the active ingredient per 10 ares;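 also: grade of growth control; 5 = at least 90%; 4 = 70 to 90%; 3 = 50 to 70%; 2 = 30 to 50%; 1 = 10 to 30%; 0 = under 10%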
Source text: (§2) (Test on Herbicidal Effects by Upland Field Soil Treatment)

[5] = test system: barnyardgrass (Ec); assay: as above; conditions: 100 g of the active ingredient per 10 ares
Source text: as §2

[6] = test system: common lambsquarters (Ch); assay: as above; conditions: 100 g of the active ingredient per 10 ares
Source text: as §2

[7] = test system: pale smartweed (Po); assay: as above; conditions: 100 g of the active ingredient per 10 ares
Source text: as §2

[8] = test system: rice flatsedge (Ci); assay: as above; conditions: 100 g of the active ingredient per 10 ares
Source text: as §2

[9] = test system: slender amaranth (Am); assay: as above; conditions: 100 g of the active ingredient per 10 ares
Source text: as §2

[10] = test system: Diaitaria ciliaris (Di); assay: Test Example 3: herbicidal effects by upland field foliage treatment; set-up: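 grade of growth control; 5 = at least 90%; 4 = 70 to 90%; 3 = 50 to 70%; 2 = 30 to 50%; 1 = 10 to 30%; 0 = under 10%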
Outline: (§3)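 Weeds were sown in sand-filled pots (surface area: 120 cm^2), covered with soil and grown in a greenhouse for 2 weeks before foliar treatment. Plants then stayed in the greenhouse, and herbicidal effect was scored against graded standards on the 14th day after treatment.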

[11] = test system: barnyardgrass (Ec); assay: as above; set-up: scale not given here
Outline: as §3

[12] = test system: common lambsquarters (Ch); assay: as above; set-up: scale not given here
Outline: as §3

[13] = test system: pale smartweed (Po); assay: as above; set-up: scale not given here
Outline: as §3

[14] = test system: rice flatsedge (Ci); assay: as above; set-up: scale not given here
Outline: as §3

[15] = test system: slender amaranth (Am); assay: as above; set-up: scale not given here
Outline: as §3

[16] = test system: cotton (Go); assay: Test Example 4: crop plant selectivity by upland field soil treatment (cotton), phytotoxicity; set-up: scale not given here; conditions: evaluated 21st day after application
Experimental: (§4) (Test on Crop Plant Selectivity by Upland Field Soil Treatment)
(§5) In a plastic pot (surface area: 600 cm^2) filled with sand, cotton (Go), Diaitaria ciliaris (Di), green foxtail (Se), pale smartweed (Po), slender amaranth (Am), common lambsquarters (Ch) and China jute (Ab) were sown and covered with soil. […] The plants were then cultured in a green house, and the evaluation of the herbicidal effects and phytotoxicity was conducted on the 21st day after the application in accordance with the standards as identified in Table 47. Symbol—represents “not tested”.

[17] = test system: China jute (Ab); assay: Test Example 4: crop plant selectivity by upland field soil treatment (cotton), herbicidal effects; set-up: scale not given here; conditions: evaluated 21st day after application
Experimental: as §4, §5

[18] = test system: common lambsquarters (Ch); assay: as above; set-up: scale not given here; conditions: evaluated 21st day after application
Experimental: as §4, §5

[19] = test system: green foxtail (Se); assay: as above; set-up: scale not given here; conditions: evaluated 21st day after application
Experimental: as §4, §5

[20] = test system: pale smartweed (Po); assay: as above; set-up: scale not given here; conditions: evaluated 21st day after application
Experimental: as §4, §5

[21] = test system: slender amaranth (Am); assay: as above; set-up: scale not given here; conditions: evaluated 21st day after application
Experimental: as §4, §5

[22] = test system: wheat (Tr); assay: Test Example 5: crop plant selectivity by upland field soil treatment (wheat), phytotoxicity; set-up: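 grade of crop injury; 5 = at least 90%; 4 = 70 to 90%; 3 = 50 to 70%; 2 = 30 to 50%; 1 = 10 to 30%; 0 = under 10%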; conditions: 21st day after application
Experimental: as §4
(§6) In a plastic pot (surface area: 600 cm^2) filled with sand, wheat (Tr), Diaitaria ciliaris (Di), green foxtail (Se), pale smartweed (Po), slender amaranth (Am), common lambsquarters (Ch) and China jute (Ab) were sown and covered with soil. […] The plants were then cultured in a green house, and the evaluation of the herbicidal effects and phytotoxicity was conducted on the 21st day after the application in accordance with the standards as identified in Table 47. Symbol—represents “not tested”.

[23] = test system: China jute (Ab); assay: Test Example 5: crop plant selectivity by upland field soil treatment (wheat), herbicidal effects; set-up: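 grade of growth control; 5 = at least 90%; 4 = 70 to 90%; 3 = 50 to 70%; 2 = 30 to 50%; 1 = 10 to 30%; 0 = under 10%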; conditions: 21st day after application
Experimental: as §4, §6

[24] = test system: common lambsquarters (Ch); assay: as above; set-up: scale not given here; conditions: 21st day after application
Experimental: as §4, §6

[25] = test system: green foxtail (Se); assay: as above; set-up: scale not given here; conditions: 21st day after application
Experimental: as §4, §6

[26] = test system: pale smartweed (Po); assay: as above; set-up: scale not given here; conditions: 21st day after application
Experimental: as §4, §6

[27] = test system: slender amaranth (Am); assay: as above; set-up: scale not given here; conditions: 21st day after application
Experimental: as §4, §6

[28] = test system: soybean (Gl); assay: Test Example 6: crop plant selectivity by upland field soil treatment (soybean), phytotoxicity; set-up: scale not given here; conditions: dose 6.3 g ai/10a, 21st day after application
Experimental: as §4
(§7) In a plastic pot (surface area: 600 cm^2) filled with sand, soybean (Gl), Diaitaria ciliaris (Di), green foxtail (Se), Johnsongrass (So), pale smartweed (Po), slender amaranth (Am), common lambsquarters (Ch) and China jute (Ab) were sown and covered with soil. […] The plants were then cultured in a green house, and the evaluation of the herbicidal effects and phytotoxicity was conducted on the 21st day after the application in accordance with the standards as identified in Table 47. Symbol—represents “not tested”.

[29] = test system: China jute (Ab); assay: Test Example 6: crop plant selectivity by upland field soil treatment (soybean), herbicidal effects; set-up: scale not given here; conditions: dose 6.3 g ai/10a, 21st day after application
Experimental: as §4, §7

[30] = test system: common lambsquarters (Ch); assay: as above; set-up: scale not given here; conditions: dose 6.3 g ai/10a, 21st day after application
Experimental: as §4, §7

[31] = test system: green foxtail (Se); assay: as above; set-up: scale not given here; conditions: dose 6.3 g ai/10a, 21st day after application
Experimental: as §4, §7

[32] = test system: pale smartweed (Po); assay: as above; set-up: scale not given here; conditions: dose 6.3 g ai/10a, 21st day after application
Experimental: as §4, §7

[33] = test system: slender amaranth (Am); assay: as above; set-up: scale not given here; conditions: dose 6.3 g ai/10a, 21st day after application
Experimental: as §4, §7

[34] = 21st day after the application, index 0-5 of Table 47
[35] = 100 g of the active ingredient per 10 ares, evaluated on the 14th day after treatment
[36] = evaluated on the 21st day after application
[37] = 100 g active ingredient per 10 ares, evaluated 14th day after treatment

`Cn1c(C(F)(F)F)ccc(-c2cc(Oc3ncccn3)c(Cl)cc2F)c1=O` [Compound No. 1-27] was tested, and the “Herbicidal effects Ec” value [1] was 5, the “Herbicidal effects Sc” value [2] was 5 and the “Herbicidal effects Mo” value [3] was 5. The “Herbicidal effects Di” value [4, 34] was 5, the “Herbicidal effects Ec” value [5, 34] was 5 and the “Herbicidal effects Ch” value [6, 34] was 5. The “Herbicidal effects Po” value [7, 34] was 5, the “Herbicidal effects Ci” value [8, 34] was 5 and the “Herbicidal effects Am” value [9, 34] was 5. The “Herbicidal effects Di” value [10, 35] was 5, the “Herbicidal effects Ec” value [11, 35] was 5 and the “Herbicidal effects Ch” value [12, 35] was 5. For the same compound, the “Herbicidal effects Po” value [13, 35] was 5, the “Herbicidal effects Ci” value [14, 35] was 5 and the “Herbicidal effects Am” value [15, 35] was 5. For the same compound, the “Phytotoxicity Go” value ([16]; dose 1.6 g ai/10 a) was 1, the “Phytotoxicity Go” value ([16]; dose 6.3 g ai/10 a) was 1 and the “Herbicidal effects Ab” value ([17]; dose 1.6 g ai/10 a) was 5. For the same compound, the “Herbicidal effects Ab” value ([17]; dose 6.3 g ai/10 a) was 5, the “Herbicidal effects Ch” value ([18]; dose 1.6 g ai/10 a) was 5 and the “Herbicidal effects Ch” value ([18]; dose 6.3 g ai/10 a) was 5. The “Herbicidal effects Se” value ([19]; dose 1.6 g ai/10 a) was 5, the “Herbicidal effects Se” value ([19]; dose 6.3 g ai/10 a) was 5 and the “Herbicidal effects Po” value ([20]; dose 1.6 g ai/10 a) was 5. The “Herbicidal effects Po” value ([20]; dose 6.3 g ai/10 a) was 5, the “Herbicidal effects Am” value ([21]; dose 1.6 g ai/10 a) was 5 and the “Herbicidal effects Am” value ([21]; dose 6.3 g ai/10 a) was 5. For the same compound, the “Phytotoxicity Tr” value ([22]; dose 1.6 g ai/10a) was 1, the “Herbicidal effects Ab” value ([23]; dose 1.6 g ai/10a) was 5 and the “Herbicidal effects Ch” value ([24]; dose 1.6 g ai/10a) was 5. The “Herbicidal effects Se” value ([25]; dose 1.6 g ai/10a) was 5, the “Herbicidal effects Po” value ([26]; dose 1.6 g ai/10a) was 5 and the “Herbicidal effects Am” value ([27]; dose 1.6 g ai/10a) was 5.

In the case of `C#CCN1C(=O)C(C)Oc2cc(Cl)c(-c3ccc(C(F)(F)F)n(C)c3=O)cc21` (stereo not drawn) [Compound No. 2′-1, 3-[7-chloro-2,3-dihyro-2-methyl-4-(2-propynyl)-1,4-benzoxazin-3-on-6-yl]-6-trifluoromethyl-1-methyl-2(1H)-pyridone], the “Herbicidal effects Ec” value [1] is reported as 5, the “Herbicidal effects Sc” value [2] is reported as 5 and the “Herbicidal effects Mo” value [3] is reported as 5. For the same compound, the “Herbicidal effects Di” value [4, 36] was 5, the “Herbicidal effects Ec” value [5, 36] was 5 and the “Herbicidal effects Ch” value [6, 36] was 5. The “Herbicidal effects Po” value [7, 36] was 5, the “Herbicidal effects Ci” value [8, 36] was 5 and the “Herbicidal effects Am” value [9, 36] was 5. The “Herbicidal effects Di” value [10, 37] was 5, the “Herbicidal effects Ec” value [11, 37] was 5 and the “Herbicidal effects Ch” value [12, 37] was 5. For the same compound, the “Herbicidal effects Po” value [13, 37] was 5, the “Herbicidal effects Ci” value [14, 37] was 5 and the “Herbicidal effects Am” value [15, 37] was 5. For the same compound, the “Phytotoxicity Go” value ([16]; dose 6.3 g ai/10 a) was 1, the “Herbicidal effects Ab” value ([17]; dose 6.3 g ai/10 a) was 5 and the “Herbicidal effects Ch” value ([18]; dose 6.3 g ai/10 a) was 5. For the same compound, the “Herbicidal effects Se” value ([19]; dose 6.3 g ai/10 a) was 5, the “Herbicidal effects Po” value ([20]; dose 6.3 g ai/10 a) was 5 and the “Herbicidal effects Am” value ([21]; dose 6.3 g ai/10 a) was 5. The “Phytotoxicity Tr” value ([22]; dose 6.3 g ai/10a) was 2, the “Herbicidal effects Ab” value ([23]; dose 6.3 g ai/10a) was 5 and the “Herbicidal effects Ch” value ([24]; dose 6.3 g ai/10a) was 5. The “Herbicidal effects Se” value ([25]; dose 6.3 g ai/10a) was 5, the “Herbicidal effects Po” value ([26]; dose 6.3 g ai/10a) was 5 and the “Herbicidal effects Am” value ([27]; dose 6.3 g ai/10a) was 5. The “Phytotoxicity Gl” value [28] was 1, the “Herbicidal effects Ab” value [29] was 5 and the “Herbicidal effects Ch” value [30] was 5. For the same compound, the “Herbicidal effects Se” value [31] was 5, the “Herbicidal effects Po” value [32] was 5 and the “Herbicidal effects Am” value [33] was 5.

From patent US6472348B1, “Pyridone derivatives and herbicides” (Kumiai Chemical Industry Co., Ltd., priority 1996, dated 2002)
